Measured values as given in the supplement of paper PMC4862054.

What was measured:
Conditions in all cases: incubation time: 72 h
BT-474 [1] = assay: normalised response (% of control), CellTox Green; higher = less cell death (100 = DMSO, 0 = benzethonium chloride kill control)
Procedure, shortened: (§1)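 Breast cancer cell lines in 20 µl suspension were added to 384-well plates containing compound at 5 concentrations, spaced in 10-fold steps across a 10,000-fold range chosen for each compound, and incubated for 72 h. CellTox Green fluorescence was read at 485/520 nm, followed by CellTiter-Glo luminescence after 10 min at room temperature. Signals on each plate were normalised so that 0.1 % DMSO equals 100 and a positive kill control equals 0. Every value in the table is the normalised signal at one concentration of the series.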

BT-549 [2] = assay: as above
Procedure, shortened: as §1

CAL-120 [3] = assay: as above
Procedure, shortened: as §1

CAL-148 [4] = assay: as above
Procedure, shortened: as §1

CAL-51 [5] = assay: as above
Procedure, shortened: as §1

CAL-85-1 [6] = assay: as above
Procedure, shortened: as §1

DU-4475 [7] = assay: as above
Procedure, shortened: as §1

HCC1143 [8] = assay: as above
Procedure, shortened: as §1

HCC1599 [9] = assay: as above
Procedure, shortened: as §1

HCC1937 [10] = assay: as above
Procedure, shortened: as §1

HDQ-P1 [11] = assay: as above
Procedure, shortened: as §1

Hs578T [12] = assay: as above
Procedure, shortened: as §1

MCF-10A [13] = assay: as above
Procedure, shortened: as §1

MDA-MB-231 [14] = assay: as above
Procedure, shortened: as §1

MDA-MB-436 [15] = assay: as above
Procedure, shortened: as §1

MDA-MB-453 [16] = assay: as above
Procedure, shortened: as §1

MDA-MB-468 [17] = assay: as above
Procedure, shortened: as §1

MFM-223 [18] = assay: as above
Procedure, shortened: as §1

BT-474 [19] = assay: normalised response (% of control), CellTiter-Glo; higher = more viable cells (100 = DMSO, 0 = benzethonium chloride kill control)
Description: (§2)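 DSRT, 72 h incubation, CellTox Green / CellTiter-Glo readout. Signal is normalised to DMSO and benzethonium chloride controls. Value is the normalised response at the highest dose.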

BT-549 [20] = assay: as above
Description: as §2

CAL-120 [21] = assay: as above
Description: as §2

CAL-148 [22] = assay: as above
Description: as §2

CAL-51 [23] = assay: as above
Description: as §2

CAL-85-1 [24] = assay: as above
Description: as §2

DU-4475 [25] = assay: as above
Description: as §2

HCC1143 [26] = assay: as above
Description: as §2

HCC1599 [27] = assay: as above
Description: as §2

HCC1937 [28] = assay: as above
Description: as §2

HDQ-P1 [29] = assay: as above
Description: as §2

Hs578T [30] = assay: as above
Description: as §2

MCF-10A [31] = assay: as above
Description: as §2

MDA-MB-231 [32] = assay: as above
Description: as §2

MDA-MB-436 [33] = assay: as above
Description: as §2

MDA-MB-453 [34] = assay: as above
Description: as §2

MDA-MB-468 [35] = assay: as above
Description: as §2

MFM-223 [36] = assay: as above
Description: as §2

SK-BR-3 = assay: as above
Description: as §2

Structure (SMILES) | normalised response (BT-474 [1]) [%] | normalised response (BT-549 [2]) [%] | normalised response (CAL-120 [3]) [%] | normalised response (CAL-148 [4]) [%] | normalised response (CAL-51 [5]) [%] | normalised response (CAL-85-1 [6]) [%] | normalised response (DU-4475 [7]) [%] | normalised response (HCC1143 [8]) [%] | normalised response (HCC1599 [9]) [%] | normalised response (HCC1937 [10]) [%] | normalised response (HDQ-P1 [11]) [%] | normalised response (Hs578T [12]) [%] | normalised response (MCF-10A [13]) [%] | normalised response (MDA-MB-231 [14]) [%] | normalised response (MDA-MB-436 [15]) [%] | normalised response (MDA-MB-453 [16]) [%] | normalised response (MDA-MB-468 [17]) [%] | normalised response (MFM-223 [18]) [%] | normalised response (BT-474 [19]) [%] | normalised response (BT-549 [20]) [%] | normalised response (CAL-120 [21]) [%] | normalised response (CAL-148 [22]) [%] | normalised response (CAL-51 [23]) [%] | normalised response (CAL-85-1 [24]) [%] | normalised response (DU-4475 [25]) [%] | normalised response (HCC1143 [26]) [%] | normalised response (HCC1599 [27]) [%] | normalised response (HCC1937 [28]) [%] | normalised response (HDQ-P1 [29]) [%] | normalised response (Hs578T [30]) [%] | normalised response (MCF-10A [31]) [%] | normalised response (MDA-MB-231 [32]) [%] | normalised response (MDA-MB-436 [33]) [%] | normalised response (MDA-MB-453 [34]) [%] | normalised response (MDA-MB-468 [35]) [%] | normalised response (MFM-223 [36]) [%] | normalised response (SK-BR-3) [%]
Nc1ncnc2c1c(COc1cccc(Cl)c1)nn2C1CCOCC1 (10000 nM) | 106 | 110 | 109 | 96 | 109 | 91.3 | 103 | 104 | 106 | 103 | 109 | 110 | 86.3 | 106 | 79.2 | 104 | 112 | 98.8 | 86.8 | 88.1 | 107 | 113 | 101 | 90.2 | 101 | 98.2 | 98.6 | 95.3 | 92.2 | 100 | 89.3 | 89.6 | 89.3 | 88.3 | 92.3 | 96.8 | 102
C/C(=C\c1csc(C)n1)[C@@H]1C[C@@H]2O[C@]2(C)CCC[C@H](C)[C@H](O)[C@@H](C)C(=O)C(C)(C)[C@@H](O)CC(=O)O1 [Patupilone] (1000 nM) | 52.6 | 74.4 | 87.5 | 52.6 | 41.2 | -11.4 | 100 | 53.7 | 92.5 | 103 | 93.3 | -68.9 | 20.1 | -10.5 | 78.4 | 96.4 | 97.4 | 55.5 | 36.8 | 18.5 | 58.4 | 54.1 | 25.4 | 20.7 | 49.2 | 31.3 | 25.3 | 74 | 62.4 | 12.2 | 41.5 | 29.8 | 31.5 | 53.2 | 36 | 47.4 | 11.7
O=C(O)CCCc1ccc(N(CCCl)CCCl)cc1 [Chlorambucil] (10000 nM) | 99.8 | 78.8 | 102 | 95.3 | 81.7 | 82.5 | 98.1 | 102 | 105 | 105 | 104 | 124 | 83 | 104 | 66.2 | 102 | 141 | 99.2 | 96 | 91.9 | 100 | 103 | 117 | 96.2 | 96.9 | 96.9 | 89.3 | 94.9 | 101 | 103 | 97.3 | 97.6 | 81.3 | 123 | 94.1 | 108 | 101
O=C1NC(=O)[C@@H](c2cn3c4c(cccc24)CCC3)[C@@H]1c1c[nH]c2ccccc12 [Tivantinib] (1000 nM) | 76 | 85.3 | 74.4 | 71.5 | 26.8 | 20.5 | 93.6 | 104 | 77.5 | 84.5 | 80.2 | 52.5 | 57.7 | 11.1 | 68.1 | 96.2 | 60.4 | 76.4 | 60.2 | 35.4 | 49.4 | 41.5 | 38.7 | 30.6 | 71.6 | 53.5 | 47.9 | 69.4 | 69.9 | 24.6 | 58.1 | 56.2 | 43.6 | 54.3 | 29.7 | 60 | 16.4
